# Results taken from patent US20260263459A1, “PHTHALAZINONE GSPT1 PROTEIN DEGRADING AGENT AND USE THEREOF” (CHINA PHARMACEUTICAL UNIVERSITY, priority 2023, published 2026).
# How the values were obtained:
# GSPT1 protein = biological target: T1, GSPT1 protein (Homo sapiens, UniProt P15170+Q96SW2); test: Degradation of GSPT1 in KG-1 cells (Western blot); assay type: cell-based; conditions: compound concentration 200 nM, 4 h incubation
# T1 construct: Whole cell lysates were prepared; endogenous in cells; host or cells: KG-1 cells
# Procedure: KG-1 cells were grown in an IMDM culture medium (containing 20% FBS). After centrifugation and counting, the cell concentration was adjusted. The cells were plated onto 6-well plates at 10^6 cells/well, with 1350 μL per well. 150 μL of DMSO and the test compounds of the present disclosure (compound concentration: 200 nM) were added. The plates were incubated in an incubator at 37° C. with 5% CO2 for 4 h. The cells were centrifuged, and the culture medium was discarded. PBS was added to wash the cells and then discarded. Whole cell lysates were prepared using a protease inhibitor cocktail (100×, Fude Biological), a protein phosphatase inhibitor cocktail (100×, Fude Biological), Super Nuclease (Beyotime), and a high-intensity RIPA lysis buffer (Thermo Fisher) and placed on ice for 30 min. After centrifugation, the cell debris precipitates were discarded, and the whole cell lysate supernatants were collected and transferred to new centrifuge tubes. After a BCA protein assay, samples were prepared using a 5× loading buffer (Thermo Fisher). The samples were subjected to protein electrophoresis separation in a 4-20% precast gel (SDS-PAGE gel), transferred to a PVDF membrane, blocked with 5% NFDM/TBST at room temperature for 1 h, incubated overnight with primary antibodies at 4° C., and incubated with a secondary antibody at room temperature for 2 h the next day. Signals were detected using a MINICHEMITM imaging system.
# • Anti-GSPT1: Abcam ab234433 • Anti-beta actin: Fude Biological FD0060
# • Anti-rabbit peroxidase-linked secondary antibody: Fude Biological FDG007
# The degradation effects of the compounds on GSPT1 protein are shown in Table 1, where A represents a GSPT1 protein degradation percentage of no less than 70%, B represents a degradation percentage of less than 70% but no less than 30%, and C represents a degradation percentage of less than 30%.
# KG-1 cells = test: Antiproliferative activity against KG-1 cells (CCK8); assay type: cell-based; conditions: Homo sapiens, 72 h incubation, CCK8 method
# Procedure: KG-1 cells in the logarithmic growth phase were diluted in a culture medium (RPMI+10% FBS) and plated onto 96-well plates at 5000 cells/well, and the plates were incubated in an incubator at 37° C. with 5% CO2 for 24 h. 10 mM stock solutions of the test compounds of the present disclosure in DMSO were prepared and diluted with the culture medium to set 9 concentration gradients. 3 replicate wells were set for each concentration. After compound addition, the plates were incubated in an incubator at 37° C. with 5% CO2 for 72 h. The cell proliferation was assessed using the CCK8 method. The cell growth inhibition IC50 values of the compounds were determined using an enzyme labeling method. The IC50 values were calculated using GraphPad Prism 7 software.
# The antiproliferative activity of the compounds against KG-1 cells is shown in Table 2, where A represents IC50≤30 nM, B represents 30<IC50≤300 nM, and C represents IC50>300 nM.
# T1 sequence (P15170 whole entry): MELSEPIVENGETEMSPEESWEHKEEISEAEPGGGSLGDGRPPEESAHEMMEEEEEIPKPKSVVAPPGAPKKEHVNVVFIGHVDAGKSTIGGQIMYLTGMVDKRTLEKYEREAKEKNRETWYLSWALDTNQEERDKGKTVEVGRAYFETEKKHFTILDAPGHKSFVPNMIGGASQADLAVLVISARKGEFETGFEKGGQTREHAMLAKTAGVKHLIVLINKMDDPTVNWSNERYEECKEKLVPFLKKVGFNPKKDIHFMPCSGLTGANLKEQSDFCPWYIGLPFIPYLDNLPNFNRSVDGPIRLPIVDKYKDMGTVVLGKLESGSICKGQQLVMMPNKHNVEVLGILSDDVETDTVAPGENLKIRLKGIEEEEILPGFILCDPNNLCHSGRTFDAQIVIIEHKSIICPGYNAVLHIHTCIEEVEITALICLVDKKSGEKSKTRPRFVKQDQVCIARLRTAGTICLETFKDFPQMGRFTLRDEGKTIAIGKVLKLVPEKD
# T1 sequence (Q96SW2 whole entry): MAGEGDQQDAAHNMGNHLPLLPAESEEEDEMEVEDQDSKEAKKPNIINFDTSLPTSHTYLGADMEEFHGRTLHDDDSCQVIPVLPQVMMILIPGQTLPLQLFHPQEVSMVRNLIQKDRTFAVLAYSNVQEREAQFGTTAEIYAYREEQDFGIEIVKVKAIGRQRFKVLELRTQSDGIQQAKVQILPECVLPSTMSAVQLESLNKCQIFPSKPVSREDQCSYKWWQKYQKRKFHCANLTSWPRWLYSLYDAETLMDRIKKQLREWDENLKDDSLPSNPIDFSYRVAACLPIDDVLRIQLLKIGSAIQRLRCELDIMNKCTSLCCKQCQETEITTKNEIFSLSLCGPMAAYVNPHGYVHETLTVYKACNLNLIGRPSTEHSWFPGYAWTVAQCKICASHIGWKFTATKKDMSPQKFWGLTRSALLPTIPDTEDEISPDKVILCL
# T1 sequence (Q16531 whole entry partner): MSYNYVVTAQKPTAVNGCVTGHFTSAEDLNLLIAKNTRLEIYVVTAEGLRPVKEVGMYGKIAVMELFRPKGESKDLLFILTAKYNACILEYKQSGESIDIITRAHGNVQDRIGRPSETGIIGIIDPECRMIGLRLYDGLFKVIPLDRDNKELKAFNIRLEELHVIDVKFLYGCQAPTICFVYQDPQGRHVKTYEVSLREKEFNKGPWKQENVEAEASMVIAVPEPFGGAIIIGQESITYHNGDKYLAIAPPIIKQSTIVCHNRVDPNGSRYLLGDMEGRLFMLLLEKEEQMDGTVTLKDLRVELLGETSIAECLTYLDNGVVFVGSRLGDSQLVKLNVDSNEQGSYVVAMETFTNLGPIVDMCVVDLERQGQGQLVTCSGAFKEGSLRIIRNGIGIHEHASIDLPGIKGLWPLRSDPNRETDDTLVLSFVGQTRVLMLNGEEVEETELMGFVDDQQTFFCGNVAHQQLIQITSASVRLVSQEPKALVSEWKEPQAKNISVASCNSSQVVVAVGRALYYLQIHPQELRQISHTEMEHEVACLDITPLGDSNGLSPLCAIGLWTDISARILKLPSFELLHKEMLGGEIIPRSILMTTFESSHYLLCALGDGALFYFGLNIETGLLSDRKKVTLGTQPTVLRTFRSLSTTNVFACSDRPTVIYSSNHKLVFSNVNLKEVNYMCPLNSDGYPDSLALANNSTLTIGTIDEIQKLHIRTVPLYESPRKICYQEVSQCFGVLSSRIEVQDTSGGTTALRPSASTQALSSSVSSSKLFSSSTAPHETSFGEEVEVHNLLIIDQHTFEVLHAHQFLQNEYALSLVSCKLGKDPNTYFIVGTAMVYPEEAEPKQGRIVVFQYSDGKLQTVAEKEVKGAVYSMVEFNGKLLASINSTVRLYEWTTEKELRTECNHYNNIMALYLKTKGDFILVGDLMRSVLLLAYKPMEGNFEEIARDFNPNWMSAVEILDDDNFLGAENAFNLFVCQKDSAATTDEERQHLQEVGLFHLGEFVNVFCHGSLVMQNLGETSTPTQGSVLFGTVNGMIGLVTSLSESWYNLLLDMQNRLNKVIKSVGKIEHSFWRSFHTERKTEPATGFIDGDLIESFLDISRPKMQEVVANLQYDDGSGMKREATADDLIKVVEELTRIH
SMILES,inhibition at 0.2 µM (GSPT1 protein),IC50 (KG-1 cells)
"COc1cccc2c1C=C(C(=O)NCc1ccc3c(=O)n(C4CCC(=O)NC4=O)ncc3c1)CO2 (centres unmarked) [Compound T-7, N-((2-(2,6-Dioxopiperidin-3-yl)-1-oxo-1,2-dihydrophthalazin-6-yl)methyl)-5-methoxy-2H-chromene-3-carboxamide]",≥ 70%,≤ 0.03 µM
"Cc1ccc2c(c1)C=C(C(=O)NCc1ccc3c(=O)n(C4CCC(=O)NC4=O)ncc3c1)CO2 (centres unmarked) [Compound T-12, N-((2-(2,6-Dioxopiperidin-3-yl)-1-oxo-1,2-dihydrophthalazin-6-yl)methyl)-6-methyl-2H-chromene-3-carboxamide]",30 to 70%,0.03 to 0.3 µM
"O=C1CCC(n2ncc3cc(CNC(=O)C4=Cc5cc(F)ccc5OC4)ccc3c2=O)C(=O)N1 (centres unmarked) [Compound T-3, N-((2-(2,6-Dioxopiperidin-3-yl)-1-oxo-1,2-dihydrophthalazin-6-yl)methyl)-6-fluoro-2H-chromene-3-carboxamide]",30 to 70%,0.03 to 0.3 µM
"Cc1cc2c(cc1Cl)C=C(C(=O)NCc1ccc3c(=O)n(C4CCC(=O)NC4=O)ncc3c1)CO2 (centres unmarked) [Compound T-20, 6-Chloro-N-((2-(2,6-dioxopiperidin-3-yl)-1-oxo-1,2-dihydrophthalazin-6-yl)methyl)-7-methyl-2H-chromene-3-carboxamide]",30 to 70%,0.03 to 0.3 µM
